Like-named read-outs stand apart in the source and are kept apart here.
What was measured:
[1] = Combination of Varlitinib and Herceptin versus either alone; details: Varlitinib in combination with Herceptin (trastuzumab)
Description: In one embodiment the compound of formula (I), such as Varlitinib, is employed in combination with at least one further HER inhibitor, for example a combination of Varlitinib and Herceptin (trastuzumab) and/or pertuzumab.

[2] = tested on: stage IV cholangiocarcinoma; assay: Example 3: person, stage IV cholangiocarcinoma, Varlitinib with cisplatin/capecitabine; type: in vivo, human; details: Varlitinib 400 mg bi-daily, cisplatin and capecitabine
Description: A person with stage IV cholangiocarcinoma (3 lesions) had progressive disease following treatment with: • radiotherapy, and • gemcitabine (Gemzar®) and cisplatin—6 months. […] The cisplatin and capecitabine regime was cisplatin 80 mg/m^2 IV infusion and capecitabine 1000 mg/m^2 orally twice daily for 14 days every 3 weeks.

[3] = tested on: stage IV cholangiocarcinoma; assay: Example 1: person, stage IV EGFR positive cholangiocarcinoma, Varlitinib monotherapy; type: in vivo, human
[4] = tested on: stage IV cholangiocarcinoma and metastatic lymphadenopathy; assay: Example 5: person, stage IV cholangiocarcinoma and metastatic lymphadenopathy, Varlitinib with cisplatin/5-FU; type: in vivo, human; details: 300 mg BID Varlitinib with cisplatin/5-FU
Description: A person was diagnosed with stage IV cholangiocarcinoma and metastatic lymphadenopathy in January 2016. No prior surgery or treatment was given before initiating first line treatment of 300 mg BID Varlitinib combined with […]/5-FU, 28-day treatment cycle. Date of the first response 5 Mar. 2016, tumor C2 was reduced by 16%. Last response tumor C4 was reduced by 13% (17 May 2016).

[5] = tested on: extra-hepatic cholangiocarcinoma; assay: Example 2: person, stage IV extra-hepatic cholangiocarcinoma, Varlitinib with cisplatin/capecitabine then monotherapy; type: in vivo, human
Description: A person, stage IV, extra-hepatic cholangiocarcinoma, prior treatment: • Whipple • Radiotherapy • Gemzar/cisplatin for 6 months For the first 6 cycles, the patient received Varlitinib 400 mg BID continuously with cisplatin (80 mg/m^2 every 3 weeks) and capecitabine (1000 mg/m2 BID, 2 weeks on, 1 week off). […] In summary, the patient received varlitinib with chemo for 6 cycles and varlitinib monotherapy for another 4 cycles (3 weeks per cycle).

gastric tumours = details: 500 mg orally BID monotherapy 28 days, gastric tumours co-expressing EGFR and HER2 or HER2 amplified, cited from earlier work
[6] = tested on: stage IV cholangiocarcinoma; assay: Example 4: person, stage IV cholangiocarcinoma, Varlitinib 500 mg with cisplatin/capecitabine; type: in vivo, human; details: after treatment cycle 2; Varlitinib 500 mg bi-daily, cisplatin and capecitabine
Description: A person with stage IV cholangiocarcinoma had progressive disease following treatment with radiotherapy and bi-weekly 5-FU. […] The cisplatin and capecitabine regime was cisplatin 80 mg/m^2 IV infusion and capecitabine 1000 mg/m^2 orally twice daily for 14 days every 3 weeks.

[7] = tested on: intrahepatic bile duct cholangiocarcinoma; assay: Example 6: person, intrahepatic bile duct cholangiocarcinoma, Varlitinib with FOLFOX then monotherapy; type: in vivo, human; details: 9 cycles Varlitinib 400 mg reduced to 300 mg BID with FOLFOX, then 7 cycles monotherapy
Description: A person diagnosed in 2013 with intrahepatic bile duct cholangiocarcinoma, had received surgery in the form of left hemihepatectomy in 15 Jul. 2013. Prior therapies were gemcitabine and cisplatin (in the period 14 Aug. 2013 to 8 Jan. 2014) and repeated between 13 May 2015 and 1 Jul. 2015. With this treatment the status was progressive disease. The patient was given 9 cycles of a combination of Varlitinib 400 mg reduced to 300 mg BID and FOLFOX. This was followed with 7 cycles of Varlitinib monotherapy.

[8] = tested on: advanced or metastatic biliary tract cancer; assay: Example 10: Phase 2A single arm study of varlitinib plus capecitabine in Chinese patients (NCT03231176); type: in vivo, human; details: Varlitinib 300 mg BID plus capecitabine 1000 mg/m^2 BID 2 weeks on, 1 week off; ongoing study
Description: This study is to assess the efficacy of varlitinib (300 mg twice daily in a 21-day cycle) plus capecitabine (1,000 mg/m^2 twice daily for 2 weeks followed by a 7-day rest period) in patients with advanced or metastatic BTC.
Primary Objective: • To assess the efficacy of varlitinib plus capecitabine in patients with advanced or metastatic biliary tract cancer who progressed on first line of systemic therapy as measured by Objective Response Rate (ORR) based on RECIST v1.1.
Secondary Objectives: • To evaluate the efficacy of varlitinib plus capecitabine, as measured by duration of confirmed response (DoR), progression-free survival (PFS), overall survival (OS) and disease control rate (DCR) • To assess the safety and tolerability of varlitinib when combined with capecitabine
A phase 2A, single arm, multicentre study of varlitinib plus capecitabine in Chinese patients with advanced or metastatic biliary tract cancer who progressed on at least 1 line of systemic therapy.
The Study duration is divided into 3 different stages.
• Have histologically or cytologically confirmed advanced (unresectable) or metastatic BTC, including intrahepatic or extrahepatic CCA, gallbladder cancer and carcinoma of Ampulla of Vater. […]

[9] = tested on: stage IV cholangiocarcinoma; assay: Example 7: person, stage IV cholangiocarcinoma, Varlitinib with cisplatin/5-FU then monotherapy; type: in vivo, human
Description: A person with stage IV cholangiocarcinoma newly diagnosed in 2014 received surgery (percutaneous […] cholangial drainage and transcatheter […] embolization), followed by adjuvant treatment of Varlitinib 400 mg BID combined with cisplatin s/5-FU 28-day cycle. After cycle 6 (14 Jul. 2015), only 400 mg BID Varlitinib was taken. Patient completed 10 cycles of monotherapy. At Cycle 11 Day 1, dose was reduced to 300 mg BID alternate days. […] 2015. Progressive disease observed in cycle 16 of monotherapy 12 Apr. 2016.

cholangiocarcinoma = assay: Second line monotherapy trial in cholangiocarcinoma patients, CA19-9 marker; type: in vivo, human
Description: CA19-9 is a marker employed in the management of cholangiocarcinoma.

[10] = tested on: intrahepatic cholangiocarcinoma, stage IV; assay: Example 8: person, stage IV intrahepatic cholangiocarcinoma, Varlitinib with mFOLFOX6 then monotherapy (ASLAN001-002SG); type: in vivo, human; details: after cycle 18
Description: They received left hemihepatectomy followed by 6 cycles of adjuvant gemcitabine and cisplatin.

[11] = tested on: treatment naïve advanced or metastatic biliary tract cancer (BTC); type: in vivo; details: for Median progression-free survival (PFS): at data cut-off
Description: The primary objectives for the phase Ib study are to determine the maximum tolerated dose (MTD) and to characterize the safety profile of varlitinib when given with gem/cis. Secondary objectives include evaluation of preliminary efficacy of the study regimen and to evaluate the pharmacokinetics of varlitinib, and any circulating metabolites. A modified 3+3+3 escalation design was used, with 2 varlitinib dose levels (200 and 300 mg twice daily) combined with cisplatin (25 mg/m^2, IV for 2 hours), followed by Gemcitabine (1000 mg/m^2, 30-minute infusion) on Day 1 and Day 8 in a 3 weeks cycle.

[12] = after treatment cycle 6, Varlitinib 400 mg bi-daily monotherapy
[13] = Cohort of 200 mg BID, with gem/cis
[14] = Cohort of 300 mg BID, with gem/cis

Compound: C[C@@H]1COC(Nc2ccc3ncnc(Nc4ccc(OCc5nccs5)c(Cl)c4)c3c2)=N1 [Varlitinib, (R)—N4-[3-Chloro-4-(thiazol-2-ylmethoxy)-phenyl]-N6-(4-methyl-4,5,-dihydro-oxazol-2-yl)-quinazoline-4,6-diamine]
- Therapeutic activity of combination versus either entity alone [1]: more therapeutic activity than either entity alone
- Tolerability [2]: well tolerated
- Response ([2]; after treatment cycle 6): 85.77%
- Dose limiting toxicity ([2]; first two treatment cycles): No dose limiting toxicity was observed
- Decrease in size of liver tumours [3, 12]: up to 23%
- Tumour marker CA 19-9 after treatment [3, 12]: ~250 U/ml
- Tumour marker CA 19-9, starting level ([3]; level from which the marker fell): ~900 U/ml
- Current disease status [4]: stable disease
- Tumor reduction, first response ([4]; C2, first line): 16%
- Tumor reduction, last response ([4]; C4, first line): 13%
- Duration of partial remission ([5]; 6 cycles with chemo then monotherapy): 24 weeks
- Reduction in tumour size ([5]; end of cycle 6, Varlitinib 400 mg BID with cisplatin 80 mg/m^2 and capecitabine 1000 mg/m2 BID): 85.77%
- Reduction in tumour size ([5]; end of cycle 8, varlitinib monotherapy after cycle 6): 87%
- Disease status by RECIST ([5]; end of cycle 10, on varlitinib monotherapy): disease progression
- Signs of clinical activity: signalling pathways responsible for cell proliferation (gastric tumours; biopsies before/after): downregulation of signalling pathways responsible for cell proliferation
- Signs of clinical activity: cell survival and cell proliferation in gastric tumours (gastric tumours): reduction in cell survival and cell proliferation
- Response [6]: 4%
- Patient status [7]: partial response
- Reduction in tumor size [7]: 50%
- Safety and tolerability [8]: safe and tolerated without any unexpected adverse events
- Cycle of treatment in which first response was observed ([9]; Varlitinib 400 mg BID with cisplatin/5-FU, 28-day cycle): 2 cycle
- Cycle in which progressive disease was observed ([9]; Varlitinib monotherapy after cycle 6): 16 cycle
- Disease control ([9]; varlitinib monotherapy after 6 cycles of varlitinib with cisplatin/5-FU): remarkable disease control
- Reduction in CA19-9 (cholangiocarcinoma; one patient, within one month of initiating Varlitinib): 90%
- CA19-9 levels (cholangiocarcinoma; second line Varlitinib monotherapy, cholangiocarcinoma patients): significant reduction
- Reduction in tumor size, best response from baseline ([10]; 9 cycles Varlitinib 400 mg BID with mFOLFOX6, then 9 cycles monotherapy): 53%
- Tumor assessment status [10]: partial response
- Median progression-free survival (PFS) ([11]; 200 mg cohort, with gem/cis): 238 days
- Median progression-free survival (PFS) ([11]; 300 mg cohort, with gem/cis): not reached
- DCR overview: Complete Response, patients ([11]; All, with gem/cis): 0
- DCR overview: Non-responders, patients ([11]; All, with gem/cis): 4
- DCR overview: PD, patients ([11]; All, with gem/cis): 0
- DCR overview: Partial Response, patients ([11]; All, with gem/cis): 7
- DCR overview: Responders, patients ([11]; All, with gem/cis): 17
- DCR overview: Responders, share of evaluable patients ([11]; All, with gem/cis): (81.0%)
- DCR overview: SD (≤12 weeks), patients ([11]; All, with gem/cis): 2
- DCR overview: SD (≥12 weeks), patients ([11]; All, with gem/cis): 10
- ORR overview: Complete Response, patients ([11]; All, with gem/cis): 0
- ORR overview: PD, patients ([11]; All, with gem/cis): 0
- ORR overview: Partial Response, patients ([11]; All, with gem/cis): 7
- ORR overview: Partial Response, share of evaluable patients ([11]; All, with gem/cis): (33.3%)
- ORR overview: SD (≥6 weeks), patients ([11]; All, with gem/cis): 12
- DCR overview: Complete Response, patients [11, 13]: 0
- DCR overview: Non-responders, patients [11, 13]: 1
- DCR overview: PD, patients [11, 13]: 0
- DCR overview: Partial Response, patients [11, 13]: 4
- DCR overview: Responders, patients [11, 13]: 10
- DCR overview: Responders, share of evaluable patients [11, 13]: (90.9%)
- DCR overview: SD (≤12 weeks), patients [11, 13]: 1
- DCR overview: SD (≥12 weeks), patients [11, 13]: 6
- ORR overview: Complete Response, patients [11, 13]: 0
- ORR overview: PD, patients [11, 13]: 0
- ORR overview: Partial Response, patients [11, 13]: 4
- ORR overview: Partial Response, share of evaluable patients [11, 13]: (36.4%)
- ORR overview: SD (≥6 weeks), patients [11, 13]: 7
- DCR overview: Complete Response, patients [11, 14]: 0
- DCR overview: Non-responders, patients [11, 14]: 3
- DCR overview: PD, patients [11, 14]: 0
- DCR overview: Partial Response, patients [11, 14]: 3
- DCR overview: Responders, patients [11, 14]: 7
- DCR overview: Responders, share of evaluable patients [11, 14]: (70.0%)
- DCR overview: SD (≤12 weeks), patients [11, 14]: 1
- DCR overview: SD (≥12 weeks), patients [11, 14]: 4
- ORR overview: Complete Response, patients [11, 14]: 0
- ORR overview: PD, patients [11, 14]: 0
- ORR overview: Partial Response, patients [11, 14]: 3
- ORR overview: Partial Response, share of evaluable patients [11, 14]: (30%)
- ORR overview: SD (≥6 weeks), patients [11, 14]: 5
- Antitumor activity ([11]; both 200 mg and 300 mg cohorts, Varlitinib plus gem/cis): Antitumor activity was observed
- Patients with partial response per RECIST v1.1 ([11]; both cohorts, with gem/cis): 7 patients
- Patients with stable disease more than 12 weeks ([11]; both cohorts, with gem/cis): 10 patients
- All-grade adverse event: anaemia ([11]; human, in vivo): 33%
- All-grade adverse event: decreased appetite ([11]; human, in vivo): 38%
- All-grade adverse event: diarrhoea ([11]; human, in vivo): 38%
- All-grade adverse event: nausea ([11]; human, in vivo): 38%
- All-grade adverse event: neutrophil decreased ([11]; human, in vivo): 38%
- All-grade adverse event: platelet decreased ([11]; human, in vivo): 52%
- Dose limiting toxicities observed, number of patients ([11]; human, in vivo): 3 patients
- Grade ≥3 adverse event: anaemia ([11]; human, in vivo): 19%
- Grade ≥3 adverse event: neutrophil decreased ([11]; human, in vivo): 33%
- Grade ≥3 adverse event: platelet decreased ([11]; human, in vivo): 29%
- Disease control rate ([11]; with gem/cis): 81.0%
